Assay results as given in patent US20070167466A1, “"Pyrazolo [4,3-d]pyrimidines, processes for their preparation and methods of use"” (priority 2003, published 2007).
Where a name gives a salt, the structure may show the parent alone. Read-outs that look alike come from different tables or passages of the source.

What was measured:
[1] = molecular target: CDK2 (p33^cdk2, cyclin E) (Homo sapiens, UniProt P24941); assay: CDK inhibition assay, p33^cdk2 kinase, histone H1 phosphorylation;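 also: Baculovirus-expressed kinase/cyclin complex from Sf9 cell extract, 10 min at 30 °C, phosphoproteins separated by SDS gel and quantified by image analysis, activity relative to DMSO control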
Procedure: Cyclin-dependent kinases (p34^cdc2, p33^cdk2) and cyclins (cyclin B, E) are produced in Sf9 insect cells coinfected with appropriate baculoviral constructs. The cells are harvested 68-72 hrs post infection in lysis buffer for 30 min on ice and the soluble fraction is recovered by centrifugation at 14.000 g for 10 min. The protein extract is stored at −80° C.
Lysis buffer: 50mM Tris pH 7.4, 150mM NaCl, 5 mM EDTA, 20 mM NaF, 1% Tween, 1 mM DTT, 0.1 mM PMSF, leupeptine, aprotonine.
To carry out experiments on kinetics under linear conditions, the final point test system for kinase activity measurement is used. The kinase is added to reaction mixture in such a way as to obtain linear activity with respect to the concentration of enzyme and with respect to time.
Kinase activity is determined at 30° C. in the kinase buffer.
Tested compounds are usually dissolved to 100 mM solutions in DMSO, final concentration of DMSO in reaction mixture never exceeds 1%. The controls contain suitable dilutions of DMSO.
After 10 min, addition 3×SDS sample buffer stops the incubations. Phosphorylated proteins are separated electrophoretically using 10% SDS polyacrylamide gel. The measurement of kinase activity is done using digital image analysis.
The kinase activity is expressed as a percentage of maximum activity, the apparent inhibition constants are determined by graphic analysis.
Kinase buffer: 50 mM Hepes pH 7.4, 10 mM MgCl2, 5 mM EGTA, 10 mM

[2] = molecular target: T1, CDK1 (p34^cdc2, cyclin B) (Homo sapiens, UniProt P06493); assay: CDK inhibition assay, p34^cdc2 kinase, histone H1 phosphorylation; type: biochemical; settings: 15 μM ATP, histone H1, 30° C.
T1 construct: made in house; host or cells: Sf9 insect cells (baculovirus co-infection)
Procedure: The controls contain suitable dilutions of DMSO.
2-glycerolphosphate, 1 mM NaF, 1 mM DTT

[3] = test system: Cytokinin-dependent tobacco callus Nicotiana tabacum L. cv. Wisconsins 38; assay: Tobacco callus bioassay for cytotoxicity (herbicidal activity); type: cell-based; settings: four weeks
Procedure: The compounds to be tested were dissolved in dimethylsulfoxide (DMSO) and the solution brought up to 10^−3 M with distilled water. […] Cytokinin-dependent tobacco callus Nicotiana tabacum L. cv. […] Subcultivation was carried out every three weeks. Fourteen days before the bioassay, the callus tissue was transferred to the media without 6-benzylaminopurine. Compounds were tested with two different concentrations of 6-benzylaminopurine (10^−5 M and 10^−6 M). Inhibitory growth activity was determined from the increase in fresh callus weight after four weeks of cultivation. Five replicates were prepared for each concentration tested and the entire test was repeated at least twice.

[4] = test system: K562 (human chronic myeloblastic leukemia); assay: In vitro cytotoxic activity, Calcein AM, three days; type: cell-based; settings: read-out: K-562 IC50
Procedure: (§1) We have been using the following cell lines: HELA (human cervical carcinoma), MCF7 (human breast adenocarcinoma), NIH 3T3 (mouse fibroblasts), HOS (human osteogenic sarcoma), HL 60 (human promyelocytic leukemia), G 361 (human malignant melanoma), K562 (human chronic myeloblastic leukemia), CEM (human lymphoblastoid leukaemia). Tested drugs were added to the cell cultures in six different concentration and kept at 37° C. and 5% CO2 for three days. All cell lines were grown in DMBM medium (Gibco BRL) supplemented with 10% (v/v) fetal bovine serum and L-glutamine and maintained at 37° C. in a humidified atmosphere with 5% CO2. 10^4 cells were seeded into each well of 96 well plate, allowed to stabilize for at least 2 h and then tested compounds were added at various concentrations ranging from 200 to 0.2 μM in triplicates. Three days after drug addition Calcein AM solution (Molecular Probes) was added and let to enter the cells for 1 hour. Fluorescence of viable cells was quantified employing Fluoroskan Ascent (Microsystems).

[5] = test system: MCF7 (human breast adenocarcinoma); assay: as above; type: cell-based
Procedure: as §1

[6] = Nicotiana tabacum, 672 h, read-out: IC50, growth of tobacco callus, 10^−5 M BAP, 10^−5 M 6-benzylaminopurine
[7] = Nicotiana tabacum, 672 h, 10^−6 M 6-benzylaminopurine, read-out: IC50, growth of tobacco callus, 10^−6 M BAP
[8] = read-out: CDK2 IC50, 15 μM ATP, histone H1, 30° C.

T1 sequence (P06493 whole entry, species assumed): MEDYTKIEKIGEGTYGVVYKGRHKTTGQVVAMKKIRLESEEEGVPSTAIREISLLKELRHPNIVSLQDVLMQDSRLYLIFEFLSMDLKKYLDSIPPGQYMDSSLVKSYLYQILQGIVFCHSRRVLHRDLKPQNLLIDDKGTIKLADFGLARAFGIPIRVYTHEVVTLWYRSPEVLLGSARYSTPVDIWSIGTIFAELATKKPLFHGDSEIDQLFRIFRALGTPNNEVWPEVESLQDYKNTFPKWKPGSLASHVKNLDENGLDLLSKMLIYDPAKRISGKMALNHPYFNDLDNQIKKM
T1 sequence (P14635 whole entry partner, species assumed): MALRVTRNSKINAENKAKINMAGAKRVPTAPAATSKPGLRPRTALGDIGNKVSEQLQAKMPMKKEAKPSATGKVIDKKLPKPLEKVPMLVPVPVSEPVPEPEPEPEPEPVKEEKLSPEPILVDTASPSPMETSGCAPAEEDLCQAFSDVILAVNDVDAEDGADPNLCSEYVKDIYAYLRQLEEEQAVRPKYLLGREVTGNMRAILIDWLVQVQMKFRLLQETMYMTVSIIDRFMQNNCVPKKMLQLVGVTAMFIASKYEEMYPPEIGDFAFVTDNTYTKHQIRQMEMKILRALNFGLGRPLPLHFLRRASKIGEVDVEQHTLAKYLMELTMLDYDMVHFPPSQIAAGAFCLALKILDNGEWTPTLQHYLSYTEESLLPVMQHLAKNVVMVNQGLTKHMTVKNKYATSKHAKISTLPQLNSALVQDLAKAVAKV

Row | IC50 [1] [µM] | IC50 [2] [µM] | melting point [°C] | IC50 [1, 8] [µM] | Compound | IC50 [3, 6] [µM] | IC50 [3, 7] [µM] | IC50 ([4]; Homo sapiens, K562, 72 h) [µM] | IC50 ([5]; Homo sapiens, MCF7, 72 h) [µM] | IC50 [4] [µM] | IC50 [5] [µM] | IC50 ([3]; 10^−6 M 6-benzylaminopurine, read-out: IC50, growth of tobacco callus, 10^−6 M BAP) [µM] | IC50 ([3]; read-out: IC50, growth of tobacco callus, 10^−5 M BAP, 10^−5 M 6-benzylaminopurine) [µM]
1 | 1.1 | 1.8 |  |  | CC(C)c1n[nH]c2c(NCc3ccc(Cl)cc3)ncnc12 [4-chlorobenzylamino / isopropyl] | 12.1 | 4.7 |  |  |  |  |  | 
2 | 1.3 | 4.5 |  |  | CC(C)=CCNc1ncnc2c(C(C)C)n[nH]c12 [isopentenylamino / isopropyl, 7-(isopent-2-en-(1-yl)amino)-3-isopropylpyrazolo[4,3-d]pyrimidine] | 15.3 | 1.7 | > 167 | > 167 |  |  |  | 
3 | 1 | 2.3 | 143 to 144 |  | COc1ccc(CNc2ncnc3c(C(C)C)n[nH]c23)cc1 [4-methoxybenzylamino / isopropyl, 7-(4-methoxybenzyl)amino-3-isopropylpyrazolo[4,3d]pyrimidine] |  |  | 41 | 28 |  |  |  | 
4 |  |  |  |  | CC(C)c1n[nH]c2c(NC3CCC3)ncnc12 [cyclobutylamino / isopropyl] |  |  |  |  | 60 | 45 | 4.3 | 12.1
5 | 2 | 2.1 |  |  | CC(C)c1n[nH]c2c(NCc3ccccc3Cl)ncnc12 [2-chlorobenzylamino / isopropyl] | 31 | 4.6 | 21 | 15 |  |  |  | 
6 | 1.4 | 1.7 | 73 to 75 |  | CCCCCNc1ncnc2c(C(C)C)n[nH]c12 [pentylamino / isopropyl, 7-pentylamino-3-isopropylpyrazolo[4,3-d]pyrimidine] |  |  | 61 | 32 |  |  |  | 
7 | 5.2 | 4.4 |  |  | CC(C)c1n[nH]c2c(Nc3ccccc3)ncnc12 [anilino / isopropyl] | 41 | 5.3 | 21 | 15 |  |  |  | 
8 | 20 | 18 |  |  | CC(C)c1n[nH]c2c(NC3CCCC3)ncnc12 [cyclopentylamino / isopropyl] | 15.6 | 8.4 |  |  |  |  |  | 
9 |  |  | 213 to 216 |  | CC(C)c1n[nH]c2c(Nc3cccc(Cl)c3)ncnc12 (as salt: salt) [3-chloroanilino / isopropyl, 7-(3-chloroanilino)-3-isopropylpyrazolo[4,3-d]pyrimidine] |  |  |  |  |  |  |  | 
10 | 14 | 16 |  |  | C=CCNc1ncnc2c(C(C)C)n[nH]c12 [allylamino / isopropyl] | 18 | 3.7 | 77 | 64 |  |  |  | 
11 | 7 | 6.2 |  |  | CCc1n[nH]c2c(NCc3ccccc3O)ncnc12 [2-hydroxybenzylamino / ethyl] |  |  | 51 | 63 |  |  |  | 
12 | 5.2 | 4 |  |  | Cc1n[nH]c2c(NCc3ccccc3O)ncnc12 [2-hydroxybenzylamino / methyl] |  |  | 55 | 67 |  |  |  | 
13 | 9 | 7 |  |  | CC(C)c1n[nH]c2c(NCc3ccccc3Br)ncnc12 [2-bromobenzylamino / isopropyl, 7-(2-bromobenzyl)amino-3-isopropylpyrazolo[4,3-d]pyrimidine] |  |  | 57 | 42 |  |  |  | 
14 | 3 | 2.9 |  |  | CC(C)c1n[nH]c2c(Nc3ccc(N)c(Cl)c3)ncnc12 [3-chloro-4-aminoanilino / isopropyl] |  |  | 13 | 12 |  |  |  | 
15 | 3.1 | 2.2 |  |  | Cc1cccc(CNc2ncnc3c(C(C)C)n[nH]c23)c1 [3-methylbenzylamino / isopropyl] | 26 | 8.5 | 94 | 76 |  |  |  | 
16 | 95 | 80 |  |  | CC(C)c1n[nH]c2c(NC3CCCCC3)ncnc12 [cyclohexylamino / isopropyl] | 46 | 9.4 | 98 | 95 |  |  |  | 
17 | 9.4 | 8.8 |  |  | CC(C)c1n[nH]c2c(NCc3cccc(Cl)c3)ncnc12 [3-chlorobenzylamino / isopropyl] | 20 | 1.7 | 26 | 24 |  |  |  | 
18 | 3.2 | 6 |  |  | CCc1n[nH]c2c(NCc3cccc(O)c3)ncnc12 [3-hydroxybenzylamino / ethyl] |  |  | 132 | 111 |  |  |  | 
19 | 5.8 | 6.1 |  |  | CC(C)c1n[nH]c2c(Nc3cc(N)cc(Cl)c3)ncnc12 [3-chloro-5-aminoanilino / isopropyl] |  |  | 35 | 29 |  |  |  | 
20 |  | 0.9 |  | 0.2 | COc1ccc(CNc2ncnc3c(C(C)C)n[nH]c23)cc1O [7-(3-hydroxy-4-methoxybenzyl)amino-3-isopropylpyrazolo[4,3d]pyrimidine] |  |  |  |  | 68 | 45 |  | 
21 |  |  |  |  | Cn1cnc2c(NCc3ccccc3)nc(NCCO)nc21 [Olomoucine, reference compound] | > 50 | > 50 | > 167 | 132 |  |  |  | 
22 | 1.4 | 2 |  |  | Cc1ccccc1CNc1ncnc2c(C(C)C)n[nH]c12 [2-methylbenzylamino / isopropyl] | 14 | 4.2 | 75 | 63 |  |  |  | 
23 | 1.9 | 1.7 |  |  | CC(C)c1n[nH]c2c(Nc3ccc(Br)cc3)ncnc12 [4-bromoanilino / isopropyl] |  |  | 7 | 5 |  |  |  | 
24 | 2.8 | 2.5 |  |  | CC(C)c1n[nH]c2c(Nc3ccc(C(=O)O)c(Cl)c3)ncnc12 [3-chloro-4-carboxyanilino / isopropyl] |  |  | 69 | 46 |  |  |  | 
25 |  | 80 |  | 70 | CC(C)c1n[nH]c2c(NC3CCC(N)CC3)ncnc12 (stereo not shown) [(4-aminocyclohexyl)amino / isopropyl] |  |  |  |  | 107 | 68 |  | 
26 | 0.27 | 0.4 |  |  | CC(C)c1n[nH]c2c(NCc3ccccc3O)ncnc12 [2-hydroxybenzylamino / isopropyl, 7-(2-hydroxybenzyl)amino-3-isopropylpyrazolo[4,3-d]pyrimidine] |  |  | 50 | 63 |  |  |  | 
27 | 25 | 27 |  |  | CCc1n[nH]c2c(NC3CCC3)ncnc12 [cyclobutylamino / ethyl] |  |  | 94 | 82 |  |  |  | 
28 | 0.8 | 1.8 | 179 to 182 |  | CC(C)c1n[nH]c2c(NCc3ccco3)ncnc12 [furfurylamino / isopropyl, 7-furfurylamino-3-isopropylpyrazolo[4,3-d]pyrimidine] | 25 | 9.4 | > 167 | 130 |  |  |  | 
